# Test results as given in patent US20230406850A1, “CRYSTALLINE FORM OF HETEROCYCLIC COMPOUND, PREPARATION METHOD THEREFOR AND APPLICATION THEREOF” (WUHAN LL SCIENCE AND TECHNOLOGY DEVELOPMENT CO., LTD., priority 2020, published 2023).
# How the values were obtained:
# [1] = Dynamic vapor sorption (DVS) hygroscopicity; assay type: physicochemical
# Method: The solid was analyzed by DVS using IGA sorp dynamic vapor sorption instrument. • Temperature: 25° C. • Gas flow: 250 mL/min. • Scan cycle: 2. • Minimum test time: 30 min. • Maximum test time: 2 hours. • Waiting for balance: 98%.
# [2] = Solubility in DMSO and DMSO/water mixed solvents; assay type: physicochemical
compound,measurement,setting,value
"COC(=O)N1CCO[C@@H](Cc2c(-c3c(F)cc(S(N)(=O)=O)cc3F)nc3cc(Cl)ccn23)C1 [Crystalline form III, methyl (S)-2-((7-chloro-2-(2,6-difluoro-4-sulfamoylphenyl)imidazo[1,2-a]pyridin-3-yl)methyl)morpholine-4-carboxylate]",XRPD before and after the DVS test,[1],no obvious change in the XRPD
same,"DVS pattern, behaviour in words",[1]; 25° C.,the water content changes little in a wide humidity range
same,Solubility,"[2]; aqueous with cosolvent or surfactant or cyclodextrin, DMSO/Water 1:2, RT",~500 µg/mL
same,Solubility,"[2]; aqueous with cosolvent or surfactant or cyclodextrin, DMSO/Water 1:3, RT",~280 µg/mL
same,Solubility,"[2]; aqueous with cosolvent or surfactant or cyclodextrin, DMSO/Water 1:4, RT",< 250 µg/mL
same,Solubility,"[2]; organic solvent or mixture, DMSO, RT",> 200000 µg/mL
